Read-outs that look alike come from different tables or passages of the source.
System: dentine-pulp complex of rats
Protocol: The objective of this study was to check the inflammatory response of the pulp tissue and dentine tissue formation in rats after the use of composites made from hydroxiapatite as compared to the use of […] (CETEA 143/04). The composites were prepared and sterilized with ethylene oxide, following the procedures described previously. 36 six-week-old rats (Rattus norvergicus) of the Wistar lineage, weighing between 250 and 300g were used in this investigation.
The animals were placed in […] groups: (1) Calcium hydroxide; (2) Bioceramics HA and PLGA; (3) Negative control within four periods of time (1, 7. 15 and 30 days). The animals received an intraperitoneal anesthetic injection of 10 ml Ketamine 10% and 7.5 ml Xilazine 10% (body weight: 0.1ml/100g).
A cavity in the first upper molar oclussal face of the animals was made using a spherical drill n. 1/4 (ISO Maillefer), in total isolation, with water refrigeration and low rotation, keeping the animal in adequate equipment. No additional retention was supplied for the preparation of the cavity. Cavities and exposures were carefully cleaned with cotton balls and distilled water during four minutes. After being sacrificed, the animals underwent the histological processing of their teeth performed with the use of hematoxilin-eosin followed by a qualitative and quantitative histological analysis. The data was subjected to a ANOVA Test statistical analysis. The dentine bridge was measured with a 60-micrometer reticle.

Structure (SMILES): [Ca+2].[OH-].[OH-] [group (1), Calcium hydroxide]
- inflammatory response of the pulp tissue (after seven days): necrosed areas and a mild acute inflammatory process
- inflammatory response of the pulp tissue (from the fourteenth day on): mild chronic infiltrate
- formation of hard tissue (onset, periods 1, 7, 15 and 30 days): around the thirtieth day

Source: patent publication EP2388023A1, “Composites on a basis of bioceramics and biodegradable or non biodegradable polymers, containing antibiotics for tissue restitution and products therefrom” (Universidade Federal de Minas Gerais, priority 2006, dated 2007)
